The source of these data is paper PMC8143342, “β-Ionone Attenuates Dexamethasone-Induced Suppression of Collagen and Hyaluronic Acid Synthesis in Human Dermal Fibroblasts” (Biomolecules, 2021).

Structures are written as SMILES.

The target of the assay is T1, glucocorticoid receptor (GR) (Homo sapiens, UniProt P04150).
T1 construct: gene NR3C1; full-length GR
T1 sequence (P04150 1-777): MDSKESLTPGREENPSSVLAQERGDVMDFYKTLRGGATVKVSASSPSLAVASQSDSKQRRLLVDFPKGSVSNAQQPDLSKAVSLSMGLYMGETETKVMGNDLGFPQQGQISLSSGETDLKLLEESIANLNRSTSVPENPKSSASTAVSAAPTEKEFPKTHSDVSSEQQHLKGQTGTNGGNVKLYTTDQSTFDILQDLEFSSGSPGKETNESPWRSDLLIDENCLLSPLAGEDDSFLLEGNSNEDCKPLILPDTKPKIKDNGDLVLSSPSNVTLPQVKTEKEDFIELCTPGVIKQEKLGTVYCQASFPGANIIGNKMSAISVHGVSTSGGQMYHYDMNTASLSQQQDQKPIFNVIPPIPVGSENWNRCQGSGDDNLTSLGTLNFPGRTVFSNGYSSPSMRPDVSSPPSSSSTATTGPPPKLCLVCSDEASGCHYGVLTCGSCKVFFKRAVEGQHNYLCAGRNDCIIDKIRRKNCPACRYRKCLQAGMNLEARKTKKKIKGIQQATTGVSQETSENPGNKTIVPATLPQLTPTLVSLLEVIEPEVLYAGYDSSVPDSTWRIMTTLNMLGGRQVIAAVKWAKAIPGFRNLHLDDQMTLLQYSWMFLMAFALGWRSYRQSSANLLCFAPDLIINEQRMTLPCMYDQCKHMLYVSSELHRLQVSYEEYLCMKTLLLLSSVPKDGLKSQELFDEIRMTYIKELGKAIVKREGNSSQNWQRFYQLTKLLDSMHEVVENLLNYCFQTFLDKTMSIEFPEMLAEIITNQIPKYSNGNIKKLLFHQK
Put plainly: fluorescence polarization competition with fluorescent glucocorticoid ligand (PolarScreen GR Competitor Assay), purified GR. In kind it is binding. In general terms: In fluorescence polarisation assays a small probe gives low polarisation when free and higher when bound to something large.

As usually defined, the IC50 is the concentration needed to halve the response being measured. Low readings indicate greater potency in that assay, high ones weaker potency in that assay. As to `CC(=O)/C=C/C1=C(C)CCCC1(C)C` [β-ionone], the IC50 was determined as 66.1 µM.
